Assay results reported in patent publication US11033607B2, “Peptides and methods for preventing ischemic tissue injury” (University Health Network, priority 2012, dated 2021).
Where “and” joins values, the source holds several entries; their conditions need not be identical. Equal values may be shown once.

Tests used:
[1] = test system: WT mice subjected to LAD ligation; assay: Myocardial infarction by LAD coronary artery ligation after 14-day peptide infusion, infarct size by TTC; format: in vivo, mouse; details: 4 days post-MI, mean±SE
Description: After 2 weeks of continuous peptide infusion, animals were re-anesthesized with i.p ketamine/xylazine and underwent permanent ligation of the proximal left anterior descending (LAD) coronary artery to generate an experimental myocardial infarction (MI), as previously described (Ohta et al. 2004), with the surgeon blinded to treatment groups. At day 4 post-MI, animals were sacrificed and hearts excised for measurement of infarct size (FIG. 1B). This timepoint allows accurate measurement of infarct area prior to onset of cardiac rupture events (Noyan-Ashraf et al. 2005)
Freshly excised hearts were washed twice in cold PBS to remove excess blood, and cut into 2 mm sections perpendicular to the long axis. The sections were incubated at 37° C. in 2% 2,3,5-triphenyltetrazolium chloride (TTC) for 15 min, after which they were washed with PBS and fixed in 4% paraformaldehyde for 1 h before image acquisition using a digital scanner. Image J software (NIH, USA) was used to measure infarct area (TTC unstained white area) and total left ventricle (LV) area. Measurements were performed by two independent investigators blinded to treatment groups, and percent infarct size was calculated as the average of both measurements (infarct area/total LV area×100%).

isolated WT mice hearts = assay: Ex vivo I/R injury, LVDP in presence of soluble AC inhibitor KH7 or transmembrane AC inhibitor Ddox
Method: Male, 10-12 week old, C57BI/6 mice were anesthesized with i.p ketamine (100 mg/kg)/xylazine (10 mg/kg)/heparin (1000 IU/kg), and the heart excised quickly, cannulated through the aorta, and perfused retrogradely with Kreb's Heinslet buffer in a Langendorff apparatus as previously described (Ban et al. 2008). […] A small plastic balloon connected to a pressure transducer was inflated inside the LV to measure LV end systolic (LVESP) and end diastolic pressure (LVEDP) obtained from computer analysis (AcqKnowledge 3.7.1. Biopack System, Goleta, Calif.). LVEDP was maintained at 4-8 mm Hg throughout the experiment. After 20 min of equilibration to allow the balloon to adjust inside the LV, hearts were perfused with buffer for 20 min, followed by 20 min perfusion with peptide of interest (FIG. 1a). Global ischemia was then generated by clamping inflow to the heart for 30 min, after which reperfusion was reinstated for 40 min. In the untreated control group, hearts were perfused for a total of 40 min prior to ischemia. LV developed pressure (LVDP) was calculated by subtracting LVEDP from LVESP. Functional recovery of LV function was calculated as LVDP at the end of reperfusion as a percentage of LVDP prior to ischemia.

[2] = test system: mouse model of ischemic stroke; assay: Mouse model of ischemic stroke after 28 days cerebral ventricle infusion
Method: Peptides corresponding to the C-terminal domain of GLP-1 as described herein including GLP-1(28-36)^amide are tested in a mouse model of ischemic stroke. GLP-1(28-36)^amide is infused via Alzet® osmotic mini pumps brain infusion kits, specialized for targeted infusion into cerebral ventricles. After 28 days of GLP-1(28-36)^amide infusion, stroke is generated, after which brain infarct sizes are determined by TTC staining.
Protein lysates from brain tissue are extracted and the expression of survival kinases is probed by Western blots.

HL-1 cells = assay: cAMP assay in HL-1 atrial myocyte cell line; format: cell-based, mouse; details: HL-1 atrial cardiomyocyte cell line, 30 nM, 10 min, IBMX 250 uM pretreatment
Method: (§1) Neonatal mouse ventricular myocytes (FIG. 9A) and atrial HL-1 myocyte cell lines (FIG. 9B) were pretreated with 250 uM IBMX for 30 min followed by treatment with GLP-1(28-36) and SCRAM(28-36) (30 nM each) or IPE and Forsk (10 uM each) or bicarbonate (25 mM) for 10 min. Cells were then lysed for measurement of cytoplasmic cAMP levels. Data represent mean±SE (n=3; triplicate wells for each replicate). After 24 h serum-deprivation, cells were pre-treated with the phosphodiesterase inhibitor IBMX (250 uM) for 30 min, after which the peptide of interest and/or vehicle PBS was added to the media to a final concentration of 30 nM for GLP-1 peptides and Exendin-4, and 10 uM for Isoproterenol and Forskolin. After 10 min drug treatment, cells were lysed and total intracellular cAMP release was measured using an enzymatic immunoassay kit (Cayman Chemicals, Mich.) as per manufacturer's protocol.

[3] = test system: primary ventricular cardiomyoctyes isolated from neonatal WT mice; assay: cAMP assay in neonatal mouse ventricular myocytes; format: cell-based; details: 30 nM, 10 min, IBMX 250 uM pretreatment, vs PBS or scrambled peptide
Method: as §1

[4] = test system: Akt, Erk1/2, CREB and eNOS; assay: Western blots of heart lysates from pre-treated mice; format: in vivo, mouse; details: organs collected on day 18, pre-treated hearts
Description: Organs were collected on day 18 as shown in the experimental model set out in FIG. 1B and Western blots of heart lysates were processed.

[5] = test system: primary human coronary artery smooth muscle cells (hCSMCs); assay: cAMP assay (enzymatic immunoassay) in hCSMCs; format: cell-based
Method: After 24 h serum-deprivation, cells were pre-treated with the phosphodiesterase inhibitor IBMX (250 uM) for 30 min, after which the peptide of interest and/or vehicle PBS was added to the media to a final concentration of 30 nM for GLP-1 peptides and Exendin-4, and 10 uM for Isoproterenol and Forskolin. After 10 min drug treatment, cells were lysed and total intracellular cAMP release was measured using an enzymatic immunoassay kit (Cayman Chemicals, Mich.) as per manufacturer's protocol.

[6] = test system: isolated perfused hearts of WT mice; assay: LDH release in coronary effluents of isolated perfused hearts undergoing I/R injury; set-up: species or system mouse; details: pretreatment 6 nmol/L, vs untreated control
Method: To further ascertain the protective actions of GLP-1(28-36)^amide, LDH release was measured in coronary effluents from the isolated perfused hearts as an indicator of cellular necrosis and death. […] Pretreatment with the GLP-1(28-36)^amide peptide therefore helps prevent cell death following an ischemic event and is useful for the treatment or prevention of ischemic tissue injury and ischemic heart disease.

[7] = 14-day pre-infusion 3.5 pmol/kg/min
[8] = 14-day pre-infusion 18.5 pmol/kg/min
[9] = with sAC inhibitor KH7 (2.4 uM)
[10] = with tmAC inhibitor Ddox (2,5 dideoxyadenosine, 12 uM)

Row | Substance | % LV infarct size [1, 7] | % LV infarct size [1, 8] | LVDP at the end of reperfusion (isolated WT mice hearts; [9]) [mmHg] | LVDP at the end of reperfusion (isolated WT mice hearts; [10]) [mmHg] | brain infarct size (TTC staining) ([2]; 28 days infusion into cerebral ventricles before stroke) | expression of survival kinases in brain tissue (Western blot) ([2]; mouse, in vivo) | intracellular cAMP release (HL-1 cells) | cAMP response [3] | activation of Akt, Erk1/2, CREB and eNOS (Western blot of heart lysates) [4] | intracellular cAMP, dose dependence [5] | cAMP release in presence of tmAC inhibitor Ddox ([5]; Ddox 25 uM) | cAMP release in presence of sAC inhibitor KH7 ([5]; KH7 25 uM) | increase in cAMP release ([5]; without AC inhibitor) [fold] | LDH release in coronary effluent [6]
1 | H-EGTFTSDVSSYLEGQAAKEFIAWLVKGR-NH2 [GLP-1(9-36)^amide] | 26.1±1.4% |  |  |  |  |  |  |  |  |  |  |  |  | 
2 | H-AGKFWRILV-NH2 [SCRAM(28-36)^amide] |  | 32.4±1.8% | 36.4±5.2 | 37.6±5.3 |  |  |  |  |  |  |  |  |  | 
3 | H-HAEGTFTSDVSSYLEGQAAKEFIAWLVKGR-NH2 [GLP-1(7-36)^amide] | 23.0±1.9% and 23.0% |  | 73.1±5.3 | 27.1±5.3 |  |  |  |  |  |  |  |  |  | 
4 | H-FIAWLVKGR-NH2 [GLP-1(28-36)^amide] |  | 24.9±2.6% and 24.9±2.4% | 25.2±1.7 | 67.6±5.8 | smaller infarct sizes | upregulation of survival kinases | no intracellular cAMP release | no cAMP response was detected | enhanced activation of Akt, Erk1/2, CREB and eNOS | dose-dependent increases in intracellular cAMP | did not prevent the increase in cAMP | abolished | 2 | significantly lower concentration of LDH
